Data from ChEMBL document CHEMBL3734692, “Design and synthesis of 2-oxindole based multi-targeted inhibitors of PDK1/Akt signaling pathway for the treatment of glioblastoma multiforme” (Eur J Med Chem, 2015).
Activity calls are given as the source filed them. No cut-off for these calls is given here.

Assays:
[1] = target: Cyclin-dependent kinase 5/CDK5 activator 1 (Homo sapiens) (UniProt Q00535+Q15078); assay: Inhibition of CDK5/p35 (unknown origin) at 1 uM by selectscreen kinase profiling assay in presence of ATP; assay type: protein-complex assay
[2] = target: Serine/threonine-protein kinase Chk2 (Homo sapiens) (UniProt O96017); assay: Inhibition of CHEK2 (unknown origin) at 1 uM by selectscreen kinase profiling assay in presence of ATP
Serine/threonine-protein kinase Chk2 (Homo sapiens), sequence (O96017 whole entry, canonical isoform): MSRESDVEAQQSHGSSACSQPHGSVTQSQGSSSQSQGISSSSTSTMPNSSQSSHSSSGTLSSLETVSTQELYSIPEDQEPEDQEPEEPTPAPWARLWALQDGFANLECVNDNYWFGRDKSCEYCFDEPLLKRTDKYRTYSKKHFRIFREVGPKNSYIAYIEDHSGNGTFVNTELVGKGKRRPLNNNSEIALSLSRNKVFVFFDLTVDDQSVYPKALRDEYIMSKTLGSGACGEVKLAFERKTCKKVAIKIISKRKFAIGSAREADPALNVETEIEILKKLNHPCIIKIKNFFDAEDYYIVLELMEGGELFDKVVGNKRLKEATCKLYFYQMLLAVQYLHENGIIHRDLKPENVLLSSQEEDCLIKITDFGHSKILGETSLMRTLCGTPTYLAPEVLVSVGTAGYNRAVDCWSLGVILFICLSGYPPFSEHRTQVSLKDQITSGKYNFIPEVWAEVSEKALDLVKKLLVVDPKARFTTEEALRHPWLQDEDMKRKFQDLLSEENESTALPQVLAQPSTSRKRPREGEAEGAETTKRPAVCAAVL

[3] = target: Casein kinase I isoform alpha (Homo sapiens) (UniProt P48729); assay: Inhibition of CK1alpha1 (unknown origin) at 1 uM by selectscreen kinase profiling assay in presence of ATP
[4] = target: Serine/threonine-protein kinase mTOR (Homo sapiens) (UniProt P42345); assay: Inhibition of mTOR (unknown origin) at 1 uM by selectscreen kinase profiling assay in presence of ATP
[5] = target: G protein-coupled receptor kinase 5 (Homo sapiens) (UniProt P34947); assay: Inhibition of GRK5 (unknown origin) at 1 uM by selectscreen kinase profiling assay in presence of ATP
[6] = target: T1, Glycogen synthase kinase-3 alpha (Homo sapiens, UniProt P49840); assay: Inhibition of GSK3alpha (unknown origin) at 1 uM by selectscreen kinase profiling assay in presence of ATP
Target sequence in this assay (P49840 2-483 limits assumed): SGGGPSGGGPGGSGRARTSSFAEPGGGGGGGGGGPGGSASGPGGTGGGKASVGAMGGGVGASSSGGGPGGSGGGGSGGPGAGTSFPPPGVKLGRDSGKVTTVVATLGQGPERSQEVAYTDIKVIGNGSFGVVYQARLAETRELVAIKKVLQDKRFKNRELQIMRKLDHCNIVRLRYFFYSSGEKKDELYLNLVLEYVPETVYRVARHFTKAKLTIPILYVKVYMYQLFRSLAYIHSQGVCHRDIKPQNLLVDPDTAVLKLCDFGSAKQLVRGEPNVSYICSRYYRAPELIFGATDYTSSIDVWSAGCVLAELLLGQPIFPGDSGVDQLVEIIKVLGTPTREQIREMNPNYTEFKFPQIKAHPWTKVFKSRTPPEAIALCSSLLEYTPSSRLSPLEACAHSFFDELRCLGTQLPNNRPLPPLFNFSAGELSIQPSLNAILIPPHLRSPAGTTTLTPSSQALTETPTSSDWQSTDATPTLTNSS

[7] = target: Glycogen synthase kinase-3 beta (Homo sapiens, UniProt P49841); assay: Inhibition of GSK3beta (unknown origin) at 1 uM by selectscreen kinase profiling assay in presence of ATP
Glycogen synthase kinase-3 beta, sequence (P49841 whole entry, looked up): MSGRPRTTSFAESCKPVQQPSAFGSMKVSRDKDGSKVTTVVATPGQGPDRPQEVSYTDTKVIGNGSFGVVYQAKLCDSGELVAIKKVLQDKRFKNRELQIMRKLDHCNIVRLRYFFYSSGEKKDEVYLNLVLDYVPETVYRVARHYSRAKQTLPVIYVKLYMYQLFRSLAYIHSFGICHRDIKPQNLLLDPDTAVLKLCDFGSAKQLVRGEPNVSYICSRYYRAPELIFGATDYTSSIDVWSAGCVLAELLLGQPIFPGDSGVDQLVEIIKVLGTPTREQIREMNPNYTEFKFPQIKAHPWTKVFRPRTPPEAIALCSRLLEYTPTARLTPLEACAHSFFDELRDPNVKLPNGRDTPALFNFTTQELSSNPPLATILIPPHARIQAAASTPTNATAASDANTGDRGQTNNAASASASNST

[8] = target: Inhibitor of nuclear factor kappa-B kinase subunit beta (Homo sapiens) (UniProt O14920); assay: Inhibition of IKKbeta (unknown origin) at 1 uM by selectscreen kinase profiling assay in presence of ATP
[9] = target: Interleukin-1 receptor-associated kinase 4 (Homo sapiens) (UniProt Q9NWZ3); assay: Inhibition of IRAK4 (unknown origin) at 1 uM by selectscreen kinase profiling assay in presence of ATP
[10] = target: Tyrosine-protein kinase ITK/TSK (Homo sapiens) (UniProt Q08881); assay: Inhibition of ITK (unknown origin) at 1 uM by selectscreen kinase profiling assay in presence of ATP
[11] = target: Tyrosine-protein kinase Lck (Homo sapiens) (UniProt P06239); assay: Inhibition of LCK (unknown origin) at 1 uM by selectscreen kinase profiling assay in presence of ATP
Tyrosine-protein kinase Lck (Homo sapiens), sequence (P06239 2-509 limits assumed): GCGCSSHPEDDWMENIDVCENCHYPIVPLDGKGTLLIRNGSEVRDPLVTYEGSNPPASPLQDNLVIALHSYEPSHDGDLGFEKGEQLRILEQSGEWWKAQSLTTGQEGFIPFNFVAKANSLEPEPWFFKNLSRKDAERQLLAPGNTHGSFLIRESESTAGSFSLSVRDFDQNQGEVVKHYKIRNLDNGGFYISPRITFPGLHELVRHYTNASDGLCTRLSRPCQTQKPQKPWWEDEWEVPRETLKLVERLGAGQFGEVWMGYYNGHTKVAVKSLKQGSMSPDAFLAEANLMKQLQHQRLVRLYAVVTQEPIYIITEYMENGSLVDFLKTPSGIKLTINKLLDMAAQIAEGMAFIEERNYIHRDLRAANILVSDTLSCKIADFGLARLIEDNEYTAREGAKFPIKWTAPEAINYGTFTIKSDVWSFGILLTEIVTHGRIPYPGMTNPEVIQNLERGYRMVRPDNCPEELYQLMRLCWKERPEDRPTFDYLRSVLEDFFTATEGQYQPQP

[12] = target: Mitogen-activated protein kinase 9 (Homo sapiens) (UniProt P45984); assay: Inhibition of JNK2 (unknown origin) at 1 uM by selectscreen kinase profiling assay in presence of ATP
Mitogen-activated protein kinase 9 (Homo sapiens), sequence (P45984 whole entry, looked up): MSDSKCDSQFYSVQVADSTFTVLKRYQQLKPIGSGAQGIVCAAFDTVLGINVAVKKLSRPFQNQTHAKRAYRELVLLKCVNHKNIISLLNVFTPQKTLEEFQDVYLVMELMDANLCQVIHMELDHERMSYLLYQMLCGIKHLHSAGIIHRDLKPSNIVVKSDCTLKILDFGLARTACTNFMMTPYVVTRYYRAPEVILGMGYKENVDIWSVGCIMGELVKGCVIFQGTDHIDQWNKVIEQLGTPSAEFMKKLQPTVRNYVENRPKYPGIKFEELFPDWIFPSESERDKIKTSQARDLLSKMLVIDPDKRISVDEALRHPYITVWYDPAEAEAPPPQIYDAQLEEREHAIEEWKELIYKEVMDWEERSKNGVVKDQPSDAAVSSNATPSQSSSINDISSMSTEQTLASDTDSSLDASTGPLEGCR

[13] = target: Serine/threonine-protein kinase MARK1 (Homo sapiens) (UniProt Q9P0L2); assay: Inhibition of MARK1 (unknown origin) at 1 uM by selectscreen kinase profiling assay in presence of ATP
[14] = target: Serine/threonine-protein kinase PAK 6 (Homo sapiens) (UniProt Q9NQU5); assay: Inhibition of PAK6 (unknown origin) at 1 uM by selectscreen kinase profiling assay in presence of ATP
Serine/threonine-protein kinase PAK 6 (Homo sapiens), sequence (Q9NQU5 whole entry, looked up): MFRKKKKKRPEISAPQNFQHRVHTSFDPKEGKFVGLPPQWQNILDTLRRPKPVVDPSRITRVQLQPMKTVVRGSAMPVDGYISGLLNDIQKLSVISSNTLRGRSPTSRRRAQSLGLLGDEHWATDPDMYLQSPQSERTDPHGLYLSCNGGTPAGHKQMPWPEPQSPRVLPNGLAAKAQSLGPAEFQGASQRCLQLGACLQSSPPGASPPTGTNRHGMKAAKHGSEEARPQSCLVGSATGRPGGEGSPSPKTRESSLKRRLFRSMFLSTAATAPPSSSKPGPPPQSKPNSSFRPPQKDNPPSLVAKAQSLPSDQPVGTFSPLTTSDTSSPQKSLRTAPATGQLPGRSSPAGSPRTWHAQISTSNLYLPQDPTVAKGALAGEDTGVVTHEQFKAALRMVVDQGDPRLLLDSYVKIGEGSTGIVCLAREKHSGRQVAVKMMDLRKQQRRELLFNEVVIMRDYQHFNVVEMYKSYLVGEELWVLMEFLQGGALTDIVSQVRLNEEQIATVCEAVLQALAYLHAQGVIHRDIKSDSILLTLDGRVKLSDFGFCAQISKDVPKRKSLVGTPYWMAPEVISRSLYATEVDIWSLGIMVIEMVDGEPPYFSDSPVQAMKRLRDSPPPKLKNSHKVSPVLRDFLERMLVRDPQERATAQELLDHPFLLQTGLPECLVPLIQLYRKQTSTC

[15] = target: Rho-associated protein kinase 1 (Homo sapiens) (UniProt Q13464); assay: Inhibition of ROCK1 (unknown origin) at 1 uM by selectscreen kinase profiling assay in presence of ATP
[16] = target: CDK9/cyclin T1 (Homo sapiens) (UniProt O60563+P50750); assay: Inhibition of CDK9/cyclin T1 (unknown origin) at 1 uM by selectscreen kinase profiling assay in presence of ATP; assay type: protein-complex assay
[17] = target: Serine/threonine-protein kinase Chk1 (Homo sapiens, UniProt O14757); assay: Inhibition of CHK1 (unknown origin) in presence of 10 uM ATP incubated for 1 hr by Z'Lyte assay
Serine/threonine-protein kinase Chk1, sequence (O14757 whole entry): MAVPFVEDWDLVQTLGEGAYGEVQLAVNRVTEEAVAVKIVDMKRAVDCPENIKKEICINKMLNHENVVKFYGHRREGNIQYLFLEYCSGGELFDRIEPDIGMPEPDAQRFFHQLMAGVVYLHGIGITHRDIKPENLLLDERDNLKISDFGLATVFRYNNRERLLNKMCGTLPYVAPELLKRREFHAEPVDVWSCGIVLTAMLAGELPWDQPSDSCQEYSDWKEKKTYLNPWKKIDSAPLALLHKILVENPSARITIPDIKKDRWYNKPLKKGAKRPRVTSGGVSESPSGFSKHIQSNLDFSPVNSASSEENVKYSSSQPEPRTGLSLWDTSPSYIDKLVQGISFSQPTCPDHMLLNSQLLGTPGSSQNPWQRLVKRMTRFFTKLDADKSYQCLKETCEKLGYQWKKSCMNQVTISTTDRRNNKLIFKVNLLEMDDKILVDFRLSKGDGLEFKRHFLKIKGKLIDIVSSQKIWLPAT

[18] = target: T1, Glycogen synthase kinase-3 alpha; assay: Inhibition of GSK3alpha (unknown origin) in presence of 10 uM ATP incubated for 1 hr by Z'Lyte assay
Target sequence in this assay (P49840 whole entry): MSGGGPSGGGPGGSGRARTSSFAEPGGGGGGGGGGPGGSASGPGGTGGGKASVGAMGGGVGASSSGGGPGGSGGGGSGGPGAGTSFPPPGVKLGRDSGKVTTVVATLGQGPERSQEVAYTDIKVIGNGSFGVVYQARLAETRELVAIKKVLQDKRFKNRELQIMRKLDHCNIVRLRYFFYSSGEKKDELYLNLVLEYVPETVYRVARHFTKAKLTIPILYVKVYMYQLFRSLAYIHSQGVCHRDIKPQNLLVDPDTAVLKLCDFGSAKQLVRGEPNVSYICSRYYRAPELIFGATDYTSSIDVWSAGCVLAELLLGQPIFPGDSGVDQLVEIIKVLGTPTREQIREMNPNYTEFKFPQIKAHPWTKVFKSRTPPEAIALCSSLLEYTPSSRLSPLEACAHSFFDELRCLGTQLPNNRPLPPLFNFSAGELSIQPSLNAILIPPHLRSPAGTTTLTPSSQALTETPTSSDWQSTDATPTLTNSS

ANGM-CSS [19] = assay: Antiproliferative activity against human GSC derived from ANGM-CSS cells by MTS assay; assay type: functional, cell-based; details: TDE = time-dependent effect
[20] = Induction of apoptosis in human GSC derived from ANGM-CSS cells assessed as dead cells at 1 uM after 7 days by annexin V-FITC/7-AAD dual staining based cell analysis (reference value: 2.33%); assay type: functional
[21] = Induction of apoptosis in human GSC derived from ANGM-CSS cells assessed as live cells at 1 uM after 7 days by annexin V-FITC/7-AAD dual staining based cell analysis (reference value: 91.88%); assay type: functional
[22] = Cell cycle arrest in human GSC derived from ANGM-CSS cells assessed as accumulation at G0/G1 phase at 1 uM after 7 days by based fluorescent reagent based cell analysis (reference value: 71.4%); assay type: functional
[23] = Cell cycle arrest in human GSC derived from ANGM-CSS cells assessed as accumulation at S phase at 1 uM after 7 days by based fluorescent reagent based cell analysis (reference value: 1.9%); assay type: functional
[24] = Cell cycle arrest in human GSC derived from ANGM-CSS cells assessed as accumulation at G2/M phase at 1 uM after 7 days by based fluorescent reagent based cell analysis (reference value: 23.5%); assay type: functional
ANGM-CSS [25] = assay: Induction of human GSC differentiation derived from ANGM-CSS cells assessed as down regulation of nestin mRNA expression at 1 uM after 7 days by RT-PCR analysis; assay type: functional, cell-based
ANGM-CSS [26] = assay: Induction of human GSC differentiation derived from ANGM-CSS cells assessed as up regulation of MAP2 mRNA expression at 1 uM after 7 days by RT-PCR analysis; assay type: functional, cell-based
ANGM-CSS [27] = assay: Reduction of neurosphere formation in human GSC derived from ANGM-CSS cells assessed as decrease in number and diameter of newly generated neurospheres at 1 uM after 9 days by microscopic analysis; assay type: functional, cell-based
ANGM-CSS [28] = assay: Antiproliferative activity against human ANGM-CSS cells assessed as inhibition of cell growth after 72 to 144 hrs by WST1 assay; assay type: functional, cell-based
[29] = Antiproliferative activity against human ANGM-CSS cells assessed as inhibition of cell growth after 72 hrs by WST1 assay; assay type: functional
[30] = Antiproliferative activity against human U118MG cells assessed as inhibition of cell growth after 120 hrs by WST1 assay; assay type: functional; details: U-118-MG
[31] = Antiproliferative activity against human U118MG cells assessed as inhibition of cell growth after 144 hrs by WST1 assay; assay type: functional; details: U-118-MG
[32] = Cell cycle arrest in human ANGM-CSS cells assessed as accumulation at G0/G1 phase at 1 uM after 7 days by based fluorescent reagent based cell analysis (reference value: 60.7%); assay type: functional
[33] = target: Aurora kinase A (Homo sapiens) (UniProt O14965); assay: Inhibition of AURKA (unknown origin) at 1 uM by selectscreen kinase profiling assay in presence of ATP
[34] = target: Cyclin-dependent kinase 1/cyclin B1 (Homo sapiens) (UniProt P06493+P14635); assay: Inhibition of CDK1/cyclin B (unknown origin) at 1 uM by selectscreen kinase profiling assay in presence of ATP; assay type: protein-complex assay
Cyclin-dependent kinase 1/cyclin B1 (Homo sapiens), sequence (P06493 whole entry, looked up): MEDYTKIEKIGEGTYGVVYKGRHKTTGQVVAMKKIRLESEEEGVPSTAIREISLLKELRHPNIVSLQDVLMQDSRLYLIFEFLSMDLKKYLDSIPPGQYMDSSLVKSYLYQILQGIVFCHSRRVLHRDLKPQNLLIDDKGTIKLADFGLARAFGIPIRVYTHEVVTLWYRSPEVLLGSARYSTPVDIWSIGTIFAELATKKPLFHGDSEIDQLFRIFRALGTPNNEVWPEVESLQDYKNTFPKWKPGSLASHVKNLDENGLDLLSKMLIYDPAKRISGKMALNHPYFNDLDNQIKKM
Cyclin-dependent kinase 1/cyclin B1 (Homo sapiens), sequence (P14635 whole entry, looked up): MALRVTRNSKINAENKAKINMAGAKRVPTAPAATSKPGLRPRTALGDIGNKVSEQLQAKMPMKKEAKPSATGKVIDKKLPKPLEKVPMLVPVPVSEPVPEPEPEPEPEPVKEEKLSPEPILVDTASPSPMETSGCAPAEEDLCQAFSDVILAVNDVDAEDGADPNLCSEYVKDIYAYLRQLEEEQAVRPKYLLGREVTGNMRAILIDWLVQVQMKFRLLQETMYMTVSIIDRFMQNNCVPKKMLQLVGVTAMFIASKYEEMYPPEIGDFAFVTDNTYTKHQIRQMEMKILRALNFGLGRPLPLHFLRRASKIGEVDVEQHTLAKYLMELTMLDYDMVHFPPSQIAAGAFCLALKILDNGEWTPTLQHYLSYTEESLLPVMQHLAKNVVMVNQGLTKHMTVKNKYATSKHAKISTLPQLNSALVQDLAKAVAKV

[35] = target: RAC-beta serine/threonine-protein kinase (Homo sapiens) (UniProt P31751); assay: Inhibition of AKT2 (unknown origin) at 1 uM by selectscreen kinase profiling assay in presence of ATP

Structure (SMILES): COc1cc2c(cc1OC)CN(CC(=O)Nc1ccc3c(c1)/C(=C/c1cnc[nH]1)C(=O)N3)CC2
- inhibition [1]: 40%
- inhibition [2]: 24%
- inhibition [3]: 4%
- inhibition [4]: -4%
- inhibition [5]: 10%
- inhibition [6]: 59%
- inhibition [7]: 70%
- inhibition [8]: 6%
- inhibition [9]: 5%
- inhibition [10]: -2%
- inhibition [11]: 26%
- inhibition [12]: 5%
- inhibition [13]: 27%
- inhibition [14]: 2%
- inhibition [15]: 8%
- inhibition [16]: 9%
- IC50 [17]: 0.274 µM
- IC50 [18]: 0.884 µM
- inhibition (ANGM-CSS [19]): tde
- Activity [20]: 1.1%
- Activity [21]: 81.32%
- Activity [22]: 69%
- Activity [23]: 1%
- Activity [24]: 27%
- Activity (ANGM-CSS [25]): Active
- Activity (ANGM-CSS [26]): Active
- Activity (ANGM-CSS [27]): Active
- growth inhibition (GI) (ANGM-CSS [28]): Dose-dependent effect
- GI50 [29]: 7.73 µM
- GI50 [30]: 16.7 µM
- GI50 [31]: 16.1 µM
- Activity [32]: 72.6%
- inhibition [33]: 37%
- inhibition [34]: 18%
- inhibition [35]: 2%
